Tested on: MDA-MB-468 spheroids with HUVEC/MSC, viability
Assay: Anticancer human tumor MDA-MB-468 cell line growth inhibition [PI3K];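 also: spheroids exposed to agents for seven days before readout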;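 as to viability, T/C: 100% = DMSO vehicle control viability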
Conditions: for viability, T/C: stronger effect = lower value
How it was run: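 Agents were dosed from a top concentration near clinical Cmax (otherwise 10 microM) in half-log decrements, alone or combined with PI3K inhibitors. The spheroids contain tumor cells plus endothelial (HUVEC) and MSC stroma; viability is measured.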

[1] = curve of first compound, second compound 0.0316 µM
[2] = curve of first compound, second compound 0.1 µM
[3] = curve of first compound, second compound 0.316 µM
[4] = curve of first compound, second compound 1 µM
[5] = curve of first compound, second compound 3.16 µM
[6] = curve of first compound, second compound 10 µM
[7] = second compound 0.0316 µM, first compound 0.0316 µM
[8] = second compound 0.0316 µM, first compound 0.1 µM
[9] = second compound 0.1 µM, first compound 0.0316 µM
[10] = second compound 0.1 µM, first compound 0.1 µM
[11] = second compound 0.316 µM, first compound 0.0316 µM
[12] = second compound 0.316 µM, first compound 0.1 µM
[13] = second compound 1 µM, first compound 0.0316 µM
[14] = second compound 1 µM, first compound 0.1 µM
[15] = second compound 3.16 µM, first compound 0.0316 µM
[16] = second compound 3.16 µM, first compound 0.1 µM
[17] = second compound 10 µM, first compound 0.0316 µM
[18] = second compound 10 µM, first compound 0.1 µM

## CC(=O)c1c(C)c2cnc(Nc3ccc(N4CCNCC4)cn3)nc2n(C2CCCC2)c1=O + Cc1nc(NC(=O)N2CCCC2C(N)=O)sc1-c1ccnc(C(C)(C)C(F)(F)F)c1
[1]
  IC50: > 100 nM
[2]
  IC50: > 100 nM
[3]
  IC50: > 100 nM
[4]
  IC50: > 100 nM
[5]
  IC50: > 100 nM
[6]
  IC50: < 0.316 nM
Second compound 0.0316 µM, first compound 0.000316 µM
  viability, T/C: 91.5%
Second compound 0.0316 µM, first compound 0.001 µM
  viability, T/C: 92.1%
Second compound 0.0316 µM, first compound 0.00316 µM
  viability, T/C: 74.8%
Second compound 0.0316 µM, first compound 0.01 µM
  viability, T/C: 93.4%
[7]
  viability, T/C: 70.7%
[8]
  viability, T/C: 70.2%
Second compound 0.1 µM, first compound 0.000316 µM
  viability, T/C: 88.3%
Second compound 0.1 µM, first compound 0.001 µM
  viability, T/C: 92.2%
Second compound 0.1 µM, first compound 0.00316 µM
  viability, T/C: 86.5%
Second compound 0.1 µM, first compound 0.01 µM
  viability, T/C: 97%
[9]
  viability, T/C: 61.6%
[10]
  viability, T/C: 67.2%
Second compound 0.316 µM, first compound 0.000316 µM
  viability, T/C: 96.2%
Second compound 0.316 µM, first compound 0.001 µM
  viability, T/C: 95%
Second compound 0.316 µM, first compound 0.00316 µM
  viability, T/C: 74.8%
Second compound 0.316 µM, first compound 0.01 µM
  viability, T/C: 91.9%
[11]
  viability, T/C: 72.5%
[12]
  viability, T/C: 67.6%
Second compound 1 µM, first compound 0.000316 µM
  viability, T/C: 90.1%
Second compound 1 µM, first compound 0.001 µM
  viability, T/C: 75.7%
Second compound 1 µM, first compound 0.00316 µM
  viability, T/C: 73.5%
Second compound 1 µM, first compound 0.01 µM
  viability, T/C: 75.2%
[13]
  viability, T/C: 75.6%
[14]
  viability, T/C: 76.8%
Second compound 3.16 µM, first compound 0.000316 µM
  viability, T/C: 74.9%
Second compound 3.16 µM, first compound 0.001 µM
  viability, T/C: 60.4%
Second compound 3.16 µM, first compound 0.00316 µM
  viability, T/C: 57.5%
Second compound 3.16 µM, first compound 0.01 µM
  viability, T/C: 68.8%
[15]
  viability, T/C: 55.4%
[16]
  viability, T/C: 55.2%
Second compound 10 µM, first compound 0.000316 µM
  viability, T/C: 32.1%
Second compound 10 µM, first compound 0.001 µM
  viability, T/C: 24.2%
Second compound 10 µM, first compound 0.00316 µM
  viability, T/C: 31.2%
Second compound 10 µM, first compound 0.01 µM
  viability, T/C: 28.6%
[17]
  viability, T/C: 29.5%
[18]
  viability, T/C: 27.6%

## Cn1nccc1Nc1nccc(-c2ccn(C(CO)c3ccc(Cl)c(F)c3)c(=O)c2)n1 (stereo unspecified) + CC(Nc1ncnc2nc[nH]c12)c1cc2cccc(Cl)c2c(=O)n1-c1ccccc1
[1]
  IC50: > 10000 nM
[2]
  IC50: > 10000 nM
[3]
  IC50: > 10000 nM
[4]
  IC50: > 10000 nM
[5]
  IC50: > 10000 nM
[6]
  IC50: < 31.6 nM
[7]
  viability, T/C: 74.2%
[8]
  viability, T/C: 84.5%
Second compound 0.0316 µM, first compound 0.316 µM
  viability, T/C: 79.5%
Second compound 0.0316 µM, first compound 1 µM
  viability, T/C: 79.6%
Second compound 0.0316 µM, first compound 3.16 µM
  viability, T/C: 79.4%
Second compound 0.0316 µM, first compound 10 µM
  viability, T/C: 78.3%
[9]
  viability, T/C: 80.1%
[10]
  viability, T/C: 86.1%
Second compound 0.1 µM, first compound 0.316 µM
  viability, T/C: 77.8%
Second compound 0.1 µM, first compound 1 µM
  viability, T/C: 96.7%
Second compound 0.1 µM, first compound 3.16 µM
  viability, T/C: 83.8%
Second compound 0.1 µM, first compound 10 µM
  viability, T/C: 73.5%
[11]
  viability, T/C: 73.1%
[12]
  viability, T/C: 69.3%
Second compound 0.316 µM, first compound 0.316 µM
  viability, T/C: 68.4%
Second compound 0.316 µM, first compound 1 µM
  viability, T/C: 73%
Second compound 0.316 µM, first compound 3.16 µM
  viability, T/C: 78.5%
Second compound 0.316 µM, first compound 10 µM
  viability, T/C: 78.9%
[13]
  viability, T/C: 65.7%
[14]
  viability, T/C: 59.8%
Second compound 1 µM, first compound 0.316 µM
  viability, T/C: 62%
Second compound 1 µM, first compound 1 µM
  viability, T/C: 71.8%
Second compound 1 µM, first compound 3.16 µM
  viability, T/C: 73.4%
Second compound 1 µM, first compound 10 µM
  viability, T/C: 72%
[15]
  viability, T/C: 56.6%
[16]
  viability, T/C: 55.1%
Second compound 3.16 µM, first compound 0.316 µM
  viability, T/C: 49%
Second compound 3.16 µM, first compound 1 µM
  viability, T/C: 63.2%
Second compound 3.16 µM, first compound 3.16 µM
  viability, T/C: 54.5%
Second compound 3.16 µM, first compound 10 µM
  viability, T/C: 48.8%
[17]
  viability, T/C: 33.8%
[18]
  viability, T/C: 34.8%
Second compound 10 µM, first compound 0.316 µM
  viability, T/C: 31.1%
Second compound 10 µM, first compound 1 µM
  viability, T/C: 32.2%
Second compound 10 µM, first compound 3.16 µM
  viability, T/C: 39.2%
Second compound 10 µM, first compound 10 µM
  viability, T/C: 27.6%

## CC(Nc1ccc2c(c1)OCCn1cc(N3C(=O)OCC3C(F)F)nc1-2)C(N)=O (stereo unspecified)
Compound 0.00316 µM
  viability, T/C: 96.8% [middle of 8 runs]
Compound 0.01 µM
  viability, T/C: 88.1% [middle of 8 runs]
Compound 0.0316 µM
  viability, T/C: 84.2% [middle of 8 runs]
Compound 0.1 µM
  viability, T/C: 91.4% [middle of 8 runs]
Compound 0.316 µM
  viability, T/C: 93.4% [middle of 8 runs]
Compound 1 µM
  viability, T/C: 90.8% [middle of 8 runs]
Compound alone, run of 05/08/2023
  IC50: > 1000 nM
